For this experiment, the target named is T1, human XIAP_BIR3 domain purified protein (Homo sapiens, UniProt P98170).
T1 construct: purchased R & D
Description: XIAP binding inhibitory activity, HTRF method with b-Smac ligand. Particulars: for inhibition at 3 µM: test compound 3 μM, first symbol of the cell, read-out: XIAP binding inhibition rate when the concentration of the test compound is 3 μM; for IC50: second symbol of the cell, read-out: XIAP binding 50% inhibitory concentration (IC50 value). The procedure: Human XIAP binding inhibitory activity were measured by the Homogeneous Time Resolved Fluorescence (HTRF) method with using commercially available human XIAP_BIR3 domain purified protein (R & D) and as a ligand a Smac N-terminal peptide (AVPIAQK (SEQ ID NO: 1)) (hereinafter referred to as “b-Smac”; Peptide Research Laboratories, Inc.) biotinylated at the C-terminus according to a conventional method.
The HTRF method will be described in detail below. A test compound diluted with a reaction buffer was added to a 384-well white shallow bottom plate (Greiner 784076) at 1 μL/well and flash centrifuged for 30 seconds. Subsequently, human XIAP_BIR3 domain purified protein was diluted with the reaction buffer (25 mM HEPES Buffer containing 100 mM NaCl, 0.1% BSA, and 0.1% triton X-100, pH 7.5) to obtain a 90 nM sample diluent, and the resultant sample diluent was added to the above-mentioned white superficial plate at 4.5 μL/well and flash centrifuged for 30 seconds. Subsequently, b-Smac diluted to 90 nM with the reaction buffer was added to the above-mentioned white superficial plat at 4.5 μL/well and flash centrifuged for 30 seconds. A mixed solution of Anti-6 HIS-Cryptate (Eu3+Cryptate-conjugated mouse monoclonal antibody anti-6 Histidine; cisbio) and Streptavidin-XL^ent! (Highgrade XL665-conjugated streptavidin; cisbio) both diluted 100-fold with HTRF detection buffer (cisbio) at a volume ratio of 1:1 was added to the above white superficial plate at 10 μL/well. After flash centrifuging the white shallow bottom plate for 30 seconds, the white shallow bottom plate was left at room temperature for 4 hours or more in the dark. The white superficial plate after being left was subjected to fluorescence intensity measurement (excitation wavelength: 320 nm, fluorescence wavelength: 665 nm and 615 nm) by EnVision (Perkin Elmer).
The binding inhibition rate (%) was calculated based on the HTRF ratio in the presence of the test compound to the HTRF ratio in the absence of the test compound (fluorescence intensity at 665 nm/fluorescence intensity at 615 nm).
A general note: Time-resolved FRET reads energy transfer from a long-lived donor to a nearby acceptor.

Counter-ions that a name gives are not always drawn. Some results are limits rather than exact numbers.

T1 sequence (P98170 252-356 limits assumed): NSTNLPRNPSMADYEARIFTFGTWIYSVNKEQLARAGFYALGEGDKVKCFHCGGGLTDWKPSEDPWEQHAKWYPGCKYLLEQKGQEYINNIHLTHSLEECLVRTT

For the compound `CN[C@@H](C)C(=O)N[C@H](C(=O)N1CCN(C(=O)c2cc3ccc(OC)cc3n2C)[C@@H](C)C1)C1CCCCC1` [Example 33, (S)—N—((S)-1-Cyclohexyl-2-((S)-4-(6-methoxy-1-methyl-1H-indole-2-carbonyl)-3-methylpiperazin-1-yl)-2-oxoethyl)-2-(methylamino)propanamide Hydrochloride], the inhibition at 3 µM was over 75%. On the same count and under the same terms, to `CN[C@@H](C)C(=O)N[C@H](C(=O)N1CCN(C(=O)c2cc3ccc(OC)cc3n2C)[C@H](C)C1)C1CCCCC1` [Example 34, (S)—N—((S)-1-Cyclohexyl-2-((R)-4-(6-methoxy-1-methyl-1H-indole-2-carbonyl)-3-methylpiperazin-1-yl)-2-oxoethyl)-2-(methylamino)propanamide Hydrochloride] belongs over 75%. As to `CN[C@@H](C)C(=O)N[C@H](C(=O)N1CCN(C(=O)c2c(C=O)c3cc(F)ccc3n2C)CC1)C1CCCCC1` [Example 35, (S)—N—((S)-1-Cyclohexyl-2-(4-(5-fluoro-3-formyl-1-methyl-1H-indole-2-carbonyl)piperazin-1-yl)-2-oxoethyl)-2-(methylamino)propanamide Hydrochloride], the inhibition at 3 µM was over 75%. Still for that read-out and setting: to `COc1ccc2cc(C(=O)N3CCN(C(=O)CN4C[C@@H](C)NC[C@@H]4CN4CCOC[C@H]4C)CC3)n(C)c2c1` [Example 36, 1-(4-(6-Methoxy-1-methyl-1H-indole-2-carbonyl)piperazin-1-yl)-2-((2R,5R)-5-methyl-2-(((R)-3-methylmorpholino)methyl)piperazin-1-yl)ethan-1-one] belongs over 75%; to `CN[C@@H](C)C(=O)N[C@H](C(=O)N1CCN(C(=O)c2c(C(=O)NCCOCCOCC(=O)O)c3ccc(OC)cc3n2C)CC1)C1CCCCC1` [Example 37, 2-(2-(2-(2-(4-((S)-2-Cyclohexyl-2-((S)-2-(methylamino)propanamido)acetyl)piperazine-1-carbonyl)-6-methoxy-1-methyl-1H-indole-3-carboxamido)ethoxy)ethoxy)acetic Acid Hydrochloride], 50 to 75%.

In the case of `CN[C@@H](C)C(=O)N[C@H](C(=O)N1CCN(C(=O)c2c(C(=O)NCCOCCOCCNC(=O)OCC3c4ccccc4-c4ccccc43)c3ccc(OC)cc3n2C)CC1)C1CCCCC1` [Example 38, (9H-Fluoren-9-yl)methyl (2-(2-(2-(2-(4-((S)-2-cyclohexyl-2-((S)-2-(methylamino)propanamido)acetyl)piperazine-1-carbonyl)-6-methoxy-1-methyl-1H-indole-3-carboxamido)ethoxy)ethoxy)ethyl)carbamate Hydrochloride], the inhibition at 3 µM was over 75%. In the case of `COc1ccc2cc(C(=O)N3CCN(C(=O)CN4C[C@@H](C)NC[C@@H]4CO)CC3)n(C)c2c1` [Example 39, 2-((2R,5R)-2-(Hydroxymethyl)-5-methylpiperazin-1-yl)-1-(4-(6-methoxy-1-methyl-1H-indole-2-carbonyl)piperazin-1-yl)ethan-1-one hydrochloride], the inhibition at 3 µM lay within 50 to 75%. Still for that read-out and setting: to `COc1ccc2cc(C(=O)N3CCN(C(=O)CN4C[C@@H](C)NC[C@@H]4CN(C)CCOCCO)CC3)n(C)c2c1` [Example 40, 2-((2R,5R)-2-(((2-(2-Hydroxyethoxy)ethyl) (methyl)amino)methyl)-5-methylpiperazin-1-yl)-1-(4-(6-methoxy-1-methyl-1H-indole-2-carbonyl)piperazin-1-yl)ethan-1-one Hydrochloride] belongs over 75%; to `CN[C@@H](C)C(=O)N[C@H](C(=O)N1CCN(C(=O)c2cc3cc(F)c(F)cc3n2C)CC1)C1CCCCC1` [Example 41, (S)—N—((S)-1-Cyclohexyl-2-(4-(5,6-difluoro-1-methyl-1H-indole-2-carbonyl)piperazin-1-yl)-2-oxoethyl)-2-(methylamino)propanamide], over 75%; to `CN[C@@H](C)C(=O)N[C@H](C(=O)N1CCN(C(=O)c2cc3ccc(OC)cc3n2C)CC1)C1CCC(F)(F)CC1` [Example 42, (S)—N—((S)-1-(4,4-Difluorocyclohexyl)-2-(4-(6-methoxy-1-methyl-1H-indole-2-carbonyl)piperazin-1-yl)-2-oxoethyl)-2-(methylamino)propanamide Hydrochloride], over 75%. On the same count and under the same terms, for `CN[C@@H](C)C(=O)N[C@H](C(=O)N1CCN(C(=O)c2c(/C=C/C(=O)OC)c3cc(F)ccc3n2C)CC1)C1CCCCC1` [Example 43, Methyl (E)-3-(2-(4-((S)-2-cyclohexyl-2-((S)-2-(methylamino)propanamido)acetyl)piperazine-1-carbonyl)-5-fluoro-1-methyl-1H-indol-3-yl)acrylate Hydrochloride] the value was over 75%. `CN[C@@H](C)C(=O)N[C@H](C(=O)N1CCN(C(=O)c2cc3cc(F)c(F)cc3n2CCOCCOCc2ccccc2)CC1)C1CCCCC1` [Example 44, (S)—N—((S)-2-(4-(1-(2-(2-(Benzyloxy)ethoxy)ethyl)-5,6-difluoro-1H-indole-2-carbonyl)piperazin-1-yl)-1-cyclohexyl-2-oxoethyl)-2-(methylamino)propanamide]: the IC50 lay in the range of 3 to 30 µM. In the case of `CN[C@@H](C)C(=O)N[C@H](C(=O)N1CCN(C(=O)c2cc3cc(F)c(F)cc3n2CCOCCO)CC1)C1CCCCC1` [Example 45, (S)—N—((S)-1-Cyclohexyl-2-(4-(5,6-difluoro-1-(2-(2-hydroxyethoxy)ethyl)-1H-indole-2-carbonyl)piperazin-1-yl)-2-oxoethyl)-2-(methylamino)propanamide], the IC50 fell in the range of 3 to 30 µM. As to `CN[C@@H](C)C(=O)N[C@@H](C(=O)N1CCN(C(=O)c2cc3cc(F)c(F)cc3n2CCOCCOCc2ccccc2)CC1)C1CCCCC1` [Example 46, (S)—N—((R)-2-(4-(1-(2-(2-(Benzyloxy)ethoxy)ethyl)-5,6-difluoro-1H-indole-2-carbonyl)piperazin-1-yl)-1-cyclohexyl-2-oxoethyl)-2-(methylamino)propanamide Hydrochloride], the IC50 was in the range of 3 to 30 µM. Consider `CN[C@@H](C)C(=O)N[C@H](C(=O)N1CCN(C(=O)c2cc3cc(F)c(F)cc3n2CCOCCOCCO)CC1)C1CCCCC1` [Example 47, (S)—N—((S)-1-Cyclohexyl-2-(4-(5,6-difluoro-1-(2-(2-(2-hydroxyethoxy)ethoxy)ethyl)-1H-indole-2-carbonyl)piperazin-1-yl)-2-oxoethyl)-2-(methylamino)propanamide], for which the IC50 was 3 to 30 µM.

Consider `CN[C@@H](C)C(=O)N[C@H](C(=O)N1CCN(C(=O)c2cc3cc(F)c(F)cc3n2CCOCCOCCOCCO)CC1)C1CCCCC1` [Example 48, (S)—N—((S)-1-Cyclohexyl-2-(4-(5,6-difluoro-1-(2-(2-(2-(2-hydroxyethoxy)ethoxy)ethoxy)ethyl)-1H-indole-2-carbonyl)piperazin-1-yl)-2-oxoethyl)-2-(methylamino)propanamide], for which the IC50 was 3 to 30 µM.

On to `CN[C@@H](C)C(=O)N[C@H](C(=O)N1CCN(C(=O)c2c(OCCOCCOCc3ccccc3)c3cc(F)c(F)cc3n2C)CC1)C1CCCCC1` [Example 49, (S)—N—((S)-2-(4-(3-(2-(2-(Benzyloxy)ethoxy)ethoxy)-5,6-difluoro-1-methyl-1H-indole-2-carbonyl)piperazin-1-yl)-1-cyclohexyl-2-oxoethyl)-2-(methylamino)propanamide], for which the IC50 was 3 to 30 µM.

For `CN[C@@H](C)C(=O)N[C@H](C(=O)N1CCN(C(=O)c2c(OCCOCCO)c3cc(F)c(F)cc3n2C)CC1)C1CCCCC1` [Example 50, (S)—N—((S)-1-Cyclohexyl-2-(4-(5,6-difluoro-3-(2-(2-hydroxyethoxy)ethoxy)-1-methyl-1H-indole-2-carbonyl)piperazin-1-yl)-2-oxoethyl)-2-(methylamino)propanamide], the IC50 fell in the range of 3 to 30 µM. The same measure, in the same setting: to `CN[C@@H](C)C(=O)N[C@H](C(=O)N1CCN(C(=O)c2c(C)c3ccccc3n2CCOC)CC1)C1CCCCC1` [Example 51, (S)—N—((S)-1-Cyclohexyl-2-(4-(1-(2-methoxyethyl)-3-methyl-1H-indole-2-carbonyl)piperazin-1-yl)-2-oxoethyl)-2-(methylamino)propanamide] belongs 3 to 30 µM; to `CN[C@@H](C)C(=O)N[C@H](C(=O)N1CCN(C(=O)c2cc3cc(F)ccc3n2CCOC)CC1)C1CCCCC1` [Example 52, (S)—N—((S)-1-Cyclohexyl-2-(4-(5-fluoro-1-(2-methoxyethyl)-1H-indole-2-carbonyl)piperazin-1-yl)-2-oxoethyl)-2-(methylamino)propanamide], 3 to 30 µM.

Consider `CN[C@@H](C)C(=O)N[C@H](C(=O)N1CCN(C(=O)c2cc3ccc(F)cc3n2CCOC)CC1)C1CCCCC1` [Example 53, (S)—N—((S)-1-cyclohexyl-2-(4-(6-fluoro-1-(2-methoxyethyl)-1H-indole-2-carbonyl)piperazin-1-yl)-2-oxoethyl)-2-(methylamino)propanamide], for which the IC50 was in the range of 3 to 30 µM.

The record behind these values is patent US12202829B2, “Heterocyclic compound” (FIMECS, Inc., priority 2018, dated 2025).
